The record followed here is patent US9420793B2, “Antiparasitic compounds” (Avista Pharma Solutions, priority 2015, dated 2016).

Assay [1] deals with Ctenocephalides felis. The conditions noted are these: 24 h; fleas.
Description: In Vitro Evaluation of Ingestion Activity Against Fleas (Ctenocephalides Felis)
For flea ingestion tests, an aliquot of each compound stock was added to organic bovine blood contained in an artificial feeding container, with a final DMSO concentration of 0.5%. Ten newly emerged unfed fleas, Ctenocephalides felis, from a laboratory colony, 0-7 days old, were aspirated into a chamber and exposed to the appropriate feeding container and held in a controlled environment at 35° C. Fleas were evaluated for % mortality at 24, 48, and 72 hours post infestation. Fleas showing normal movement and/or jumping ability were considered viable and those showing no movement after tapping the vials were scored as dead. The compound+blood mixture was replaced every 24 hours.
For assay [2], the system named is R. sanguineus. Nature of the assay: In vitro tick contact assay, comparison with standards.
Description: A solution of the test compounds was used to coat the inner wall of glass vials and to treat two filter papers. Once dried, one filter paper was placed in the cap of the vial and the other in the bottom of the vial. Each treated vial was infested with 10 ticks. Contact of the ticks with residues was induced by holding the vials in a controlled environment and assessment was performed at 12, 24 and 48 hours after application in comparison with untreated glass vials and solvent-treated glass vials. Compounds were tested in duplicate and two separate trials (n=4).
For assay [3], the system named is Aedes aegypti. The assay is described as follows: In vitro evaluation of ingestion activity against mosquitoes. The conditions noted are these: at 20 hours, compound in bovine blood, read-out: concentration at which active, mosquito ingestion. As to the method:
In Vitro Evaluation of Ingestion Activity Against Mosquitoes (Aedes aegypti)
A solution of test compounds is added to bovine blood contained in a feeding chamber to reach the desired final concentration. Blood spiked with DMSO is prepared to serve as control. Adult female mosquitoes are introduced at the bottom of the chamber and allowed to feed on blood mixtures containing DMSO or test compounds for 30 minutes. Fully engorged mosquitoes are sorted into clean chambers after the blood meal and monitored for survival over 3 days. Replicates containing 10 mosquitoes are performed with each test compound concentration and results calculated as % mortality at specific time points.

Assay [4] has as its system Dirofilaria immitis microfilariae. The assay is described as follows: Dirofilaria immitis microfilariae motility assay. The conditions noted are these: 72 h, read-out: concentration at which active, microfilariae motility.

As to `CS(=O)(=O)CC(=O)N1CC2(C1)OCc1cc(C3=NO[C@@](c4cc(Cl)c(F)c(Cl)c4)(C(F)(F)F)C3)ccc12` (racemic) [(+/−) Sarolaner, Sarolaner], in assay [1], the “Ingestion EC50” value is 1.23 ± 0.11 ppm. In addition, the “R. sanguineus Contact EC50” value worked out at 37.8 ± 12.2 ppm in assay [2] (24 h) and 12.7 ± 0.1 ppm in assay [2] (48 h).
For `O=C(CCC(F)(F)F)N1CC2(C1)OCc1cc(C3=NSC(c4cc(Cl)c(F)c(Cl)c4)(C(F)(F)F)C3)ccc12` (stereo not shown) [Compound 10, 1-[6-[5-(3,5-dichloro-4-fluoro-phenyl)-5-(trifluoromethyl)-4H-isothiazol-3-yl]spiro[1H-isobenzofuran-3,3′-azetidine]-1′-yl]-4,4,4-trifluoro-butan-1-one], the minimal effective concentration in assay [3] was under 1 µg/mL.
Turning to `O=C(c1ccc(N2CCOCC2)cc1)N1CC2(C1)OCc1cc(C3=NSC(c4cc(Cl)c(F)c(Cl)c4)(C(F)(F)F)C3)ccc12` (stereo not shown) [Compound 13, [6-[5-(3,5-dichloro-4-fluoro-phenyl)-5-(trifluoromethyl)-4H-isothiazol-3-yl]spiro[1H-isobenzofuran-3,3′-azetidine]-1′-yl]-(4-morpholinophenyl)methanone], the minimal effective concentration in assay [4] was under 10 µM.
`CCNC(=O)N1CC2(C1)OCc1cc(C3=NSC(c4cc(Cl)c(F)c(Cl)c4)(C(F)(F)F)C3)ccc12` (stereo not shown) [Compound 16, 6-[5-(3,5-dichloro-4-fluoro-phenyl)-5-(trifluoromethyl)-4H-isothiazol-3-yl]-N-ethyl-spiro[1H-isobenzofuran-3,3′-azetidine]-1′-carboxamide]: the minimal effective concentration in assay [4] is under 10 µM; in assay [3], under 1 µg/mL.
Taken in the same sequence, the figures for `O=C(Nc1ccccc1)N1CC2(C1)OCc1cc(C3=NSC(c4cc(Cl)c(F)c(Cl)c4)(C(F)(F)F)C3)ccc12` (stereo not shown) [Compound 17, 6-[5-(3,5-dichloro-4-fluoro-phenyl)-5-(trifluoromethyl)-4H-isothiazol-3-yl]-N-phenyl-spiro[1H-isobenzofuran-3,3′-azetidine]-1′-carboxamide] were under 10 µM and under 1 µg/mL.
Consider `O=C(C1CCOCC1)N1CC2(C1)OCc1cc(C3=NSC(c4cc(Cl)c(F)c(Cl)c4)(C(F)(F)F)C3)ccc12` (stereo not shown) [Compound 19, [6-[5-(3,5-dichloro-4-fluoro-phenyl)-5-(trifluoromethyl)-4H-isothiazol-3-yl]spiro[1H-isobenzofuran-3,3′-azetidine]-1′-yl]-tetrahydropyran-4-yl-methanone], for which the minimal effective concentration in assay [4] is under 10 µM; in assay [3], under 1 µg/mL.
For `CCCCN1CC2(C1)OCc1cc(C3=NSC(c4cc(Cl)c(F)c(Cl)c4)(C(F)(F)F)C3)ccc12` (stereo not shown) [Compound 20, 1′-butyl-6-[5-(3,5-dichloro-4-fluoro-phenyl)-5-(trifluoromethyl)-4H-isothiazol-3-yl]spiro[1H-isobenzofuran-3,3′-azetidine]], in that order: under 10 µM and under 1 µg/mL.
As for `CC(C)(C)CCN1CC2(C1)OCc1cc(C3=NSC(c4cc(Cl)c(F)c(Cl)c4)(C(F)(F)F)C3)ccc12` (stereo not shown) [Compound 21, 6-[5-(3,5-dichloro-4-fluoro-phenyl)-5-(trifluoromethyl)-4H-isothiazol-3-yl]-1′-(3,3-dimethylbutyl)spiro[1H-isobenzofuran-3,3′-azetidine]], the minimal effective concentration in assay [4] was under 10 µM.
Turning to `COCC(=O)N1CC2(C1)OCc1cc(C3=NSC(c4cc(Cl)c(F)c(Cl)c4)(C(F)(F)F)C3)ccc12` (stereo not shown) [Compound 22, 1-[6-[5-(3,5-dichloro-4-fluoro-phenyl)-5-(trifluoromethyl)-4H-isothiazol-3-yl]spiro[1H-isobenzofuran-3,3′-azetidine]-1′-yl]-2-methoxy-ethanone], the minimal effective concentration in assay [4] was under 10 µM.
As for `CC(C)OCC(=O)N1CC2(C1)OCc1cc(C3=NSC(c4cc(Cl)c(F)c(Cl)c4)(C(F)(F)F)C3)ccc12` (stereo not shown) [Compound 23, 1-[6-[5-(3,5-dichloro-4-fluoro-phenyl)-5-(trifluoromethyl)-4H-isothiazol-3-yl]spiro[1H-isobenzofuran-3,3′-azetidine]-1′-yl]-2-isopropoxy-ethanone], the minimal effective concentration in assay [4] was under 10 µM.
Still for that read-out and setting: for `CCOCC(=O)N1CC2(C1)OCc1cc(C3=NSC(c4cc(Cl)c(F)c(Cl)c4)(C(F)(F)F)C3)ccc12` (stereo not shown) [Compound 24, 1-[6-[5-(3,5-dichloro-4-fluoro-phenyl)-5-(trifluoromethyl)-4H-isothiazol-3-yl]spiro[1H-isobenzofuran-3,3′-azetidine]-1′-yl]-2-ethoxy-ethanone] the value was under 10 µM.
On the same count and under the same terms, for `CC(C)C(=O)N1CC2(C1)OCc1cc(C3=NSC(c4cc(Cl)c(F)c(Cl)c4)(C(F)(F)F)C3)ccc12` (stereo not shown) [Compound 25, 1-[6-[5-(3,5-dichloro-4-fluoro-phenyl)-5-(trifluoromethyl)-4H-isothiazol-3-yl]spiro[1H-isobenzofuran-3,3′-azetidine]-1′-yl]-2-methyl-propan-1-one] the value was under 10 µM; for `CCC(=O)N1CC2(C1)OCc1cc(C3=NSC(c4cc(Cl)c(F)c(Cl)c4)(C(F)(F)F)C3)ccc12` (stereo not shown) [Compound 26, 1-[6-[5-(3,5-dichloro-4-fluoro-phenyl)-5-(trifluoromethyl)-4H-isothiazol-3-yl]spiro[1H-isobenzofuran-3,3′-azetidine]-1′-yl]propan-1-one], under 10 µM; for `CC(=O)N1CC2(C1)OCc1cc(C3=NSC(c4cc(Cl)c(F)c(Cl)c4)(C(F)(F)F)C3)ccc12` (stereo not shown) [Compound 27, 1-[6-[5-(3,5-dichloro-4-fluoro-phenyl)-5-(trifluoromethyl)-4H-isothiazol-3-yl]spiro[1H-isobenzofuran-3,3′-azetidine]-1′-yl]ethanone], under 10 µM.
With `N#CCC(=O)N1CC2(C1)OCc1cc(C3=NSC(c4cc(Cl)c(F)c(Cl)c4)(C(F)(F)F)C3)ccc12` (stereo not shown) [Compound 29, 3-[6-[5-(3,5-dichloro-4-fluoro-phenyl)-5-(trifluoromethyl)-4H-isothiazol-3-yl]spiro[1H-isobenzofuran-3,3′-azetidine]-1′-yl]-3-oxo-propanenitrile], the minimal effective concentration in assay [4] is under 10 µM; in assay [3] it was under 1 µg/mL.
Taken in the same sequence, the figures for `O=C(N1CC2(C1)OCc1cc(C3=NSC(c4cc(Cl)c(F)c(Cl)c4)(C(F)(F)F)C3)ccc12)C(F)(F)C(F)(F)F` (stereo not shown) [Compound 30, 1-[6-[5-(3,5-dichloro-4-fluoro-phenyl)-5-(trifluoromethyl)-4H-isothiazol-3-yl]spiro[1H-isobenzofuran-3,3′-azetidine]-1′-yl]-2,2,3,3,3-pentafluoro-propan-1-one] were under 10 µM and under 1 µg/mL.
With `CC(F)(F)C(=O)N1CC2(C1)OCc1cc(C3=NSC(c4cc(Cl)c(F)c(Cl)c4)(C(F)(F)F)C3)ccc12` (stereo not shown) [Compound 31, 1-[6-[5-(3,5-dichloro-4-fluoro-phenyl)-5-(trifluoromethyl)-4H-isothiazol-3-yl]spiro[1H-isobenzofuran-3,3′-azetidine]-1′-yl]-2,2-difluoro-propan-1-one], the minimal effective concentration in assay [4] was under 10 µM.
Turning to `CCCCC(=O)N1CC2(C1)OCc1cc(C3=NSC(c4cc(Cl)c(F)c(Cl)c4)(C(F)(F)F)C3)ccc12` (stereo not shown) [Compound 35, 1-[6-[5-(3,5-dichloro-4-fluoro-phenyl)-5-(trifluoromethyl)-4H-isothiazol-3-yl]spiro[1H-isobenzofuran-3,3′-azetidine]-1′-yl]pentan-1-one], the minimal effective concentration was under 10 µM in assay [4] and under 1 µg/mL in assay [3].
Consider `CCCCCC(=O)N1CC2(C1)OCc1cc(C3=NSC(c4cc(Cl)c(F)c(Cl)c4)(C(F)(F)F)C3)ccc12` (stereo not shown) [Compound 36, 1-[6-[5-(3,5-dichloro-4-fluoro-phenyl)-5-(trifluoromethyl)-4H-isothiazol-3-yl]spiro[1H-isobenzofuran-3,3′-azetidine]-1′-yl]hexan-1-one], for which the minimal effective concentration in assay [4] is under 10 µM.
On the same count and under the same terms, for `Fc1c(Cl)cc(C2(C(F)(F)F)CC(c3ccc4c(c3)COC43CN(c4ncccn4)C3)=NS2)cc1Cl` (stereo not shown) [Compound 40, 6-[5-(3,5-dichloro-4-fluoro-phenyl)-5-(trifluoromethyl)-4H-isothiazol-3-yl]-1′-pyrimidin-2-yl-spiro[1H-isobenzofuran-3,3′-azetidine]] the value was under 10 µM.
In the case of `CNC(=O)N1CC2(C1)OCc1cc(C3=NSC(c4cc(Cl)c(F)c(Cl)c4)(C(F)(F)F)C3)ccc12` (stereo not shown) [Compound 41, 6-[5-(3,5-dichloro-4-fluoro-phenyl)-5-(trifluoromethyl)-4H-isothiazol-3-yl]-N-methyl-spiro[1H-isobenzofuran-3,3′-azetidine]-1′-carboxamide], the values for the minimal effective concentration in assay [4] and in assay [3] were under 10 µM and under 1 µg/mL, respectively.
